Measured values published in publication PMC7071076, “Antibacterial Activity and Pharmacokinetic Profile of a Promising Antibacterial Agent: 22-(2-Amino-phenylsulfanyl)-22-Deoxypleuromutilin” (Molecules, 2020).
≈ marks a conversion by molar mass, not a printed value.

Experiments:
E. coli ATCC 25922 = assay: MIC testing (broth dilution, 96-well plate); assay type: cell-based; details: Escherichia coli, ATCC25922
Experimental: (§1) The MIC of amphenmulin against MRSA, Escherichia coli, Salmonella typhimurium, Enterococcus faecalis, and Enterococcus faecium were determined using tiamulin as controls. MIC values were measured by the method of previous work. Staphylococcus aureus ATCC 29213 was used as the quality control bacteria, and the quality control range was referred to the Clinical and Laboratory Standards Institute (CLSI). The bacteria solution was diluted to ~10^6 CFU/mL with Mueller–Hinton (MH) broth for MRSA, Escherichia coli and Salmonella typhimurium while Trypticase Soy Broth for Enterococcus faecalis and Enterococcus faecium. Drugs were dissolved in an aqueous solution of N, N-dimethylformamide (DMF) at a concentration of 2560 µg/mL, and then diluted with broth to prepare working solution (1280 µg/mL). The drug susceptibility testing was performed in 96-well plate. A total of 20 µL of working solution was added into column 1 and well mixed as a 10-fold dilution, following which Serial 2-fold dilutions were prepared to provide concentration ranges of 128–0.0078 µg/mL. Blank broth (no cultures) and bacteria solution (drugs replaced by blank solvent) were set as drug-free controls. Each 96-well plate was cultured at 37 °C for 24 h. The MIC value is the lowest concentration of amphenmulin which inhibits the visible growth of bacteria. The experiment was repeated three times.

[1] = system: S. typhimurium ATCC 14028; assay: MIC testing (broth dilution, 96-well plate); assay type: cell-based; details: Salmonella enterica
Experimental: as §1

E. faecalis ATCC 29212 = assay: MIC testing (broth dilution, 96-well plate); assay type: cell-based; details: Enterococcus faecalis, ATCC29212
Experimental: as §1

E. faecium ATCC 35667 = assay: MIC testing (broth dilution, 96-well plate); assay type: cell-based; details: Enterococcus faecium, ATCC35667
Experimental: as §1

S. aureus ATCC 29213 = assay: MIC testing (broth dilution, 96-well plate); assay type: cell-based; details: Staphylococcus aureus, ATCC29213
Experimental: as §1

IL-6 = assay: MRSA wound infection model: serum cytokine ELISA; assay type: in vivo, mice; details: three days after treatment (method: 24 h), p < 0.05
Experimental: (§2) Six weeks SPF-ICR female mice were used for this study. The Experimental model, inducted of inflammatory in mice by skin excision, was established referring to existing methods with some alterations. The mice were anesthetized with the intravenous injection of 1% sodium pentobarbital. After their hair on the back was shaved, the mice were anesthetized and the back skin was perforated with a biopsy perforator at a depth of fascia injury. The inoculum (50 μL), containing 10^9 CFU/mL of the indicated microorganism (MRSA ATCC 43300), was applied on the wound for three times at 30 min intervals. 100 μL drug (3 mg/mL) was administrated on the wound at 1 h after inoculation for three consecutive days. A total of 100 μL blank matrix was given to the infected control group and the non-infected group in the same way. The wound was wrapped with sterile gauze. During the treatment, all mice were kept individually and free to eat and drink.
(§3) After administration for 24 h, blood samples were collected from the ocular venous plexus and were prepared to serum samples as previously described. The contents of IL-6, TNF-α, and MCP-1 in serum were detected using ELISA kits according to the instruction. All ELISA kits were purchased from Shanghai Enzyme-linked Biotechnology Co., Ltd. (Shanghai, China).

TNF-α = assay: MRSA wound infection model: serum cytokine ELISA; assay type: in vivo, mice; details: three days after treatment (method: 24 h), p < 0.05
Experimental: as §2, §3

MCP-1 = assay: MRSA wound infection model: serum cytokine ELISA; assay type: in vivo, mice; details: three days after treatment (method: 24 h), p < 0.05
Experimental: as §2, §3

MRSA ATCC 43300 = assay: Postantibiotic effect (PAE); assay type: cell-based, Staphylococcus aureus
Experimental: The PAE was determined with previously methods. MRSA in logarithmic phase was diluted to 10^6 CFU/mL using MH broth as the inoculum. […] The group in which the drug was replaced by 0.9% saline was served as the control. All the samples were incubated at 37 °C for 1 and 2 h. At the end of incubation, the drug was removed by 1000-fold dilution with MH broth which was preheated at 37 °C. After well mixing, the broth was further cultured at 37 °C. 100 µL culture solution was extracted at different time intervals (0, 1, 2, 4, 6, and 8 h). Following a 10-fold dilution, colonies were counted after 20 h of incubation. The kinetic curve was established with the logarithm of the colony number as the ordinate and the time as the abscissa. The PAE was presented in hour and calculated by the equation PAE = TA − TC [40]. TA was defined as the culture time required for the number of MRSA to up to 1 log CFU/mL after the drug removal, and TC was the culture time required for the control group.

MRSA = assay: MIC against MRSA (summary over strains); assay type: cell-based; details: Staphylococcus aureus, range over strains, read-out: minimal inhibitory concentration
Experimental: as §1

[2] = Acute oral toxicity study; details: both sexes, KM, mouse, in vivo, 5000 mg/kg; mice, oral (gavage), single dose
Experimental: (§4) The acute toxicity test mainly referred to the previous reports with some modifications. Seven male and seven female KM mice in SPF grade were used for this study. Amphenmulin was formulated in DMSO and given in a single- dose at 5000 mg/kg by gavage, while the control group were given DMSO without drug. […] The median lethal dose (LD50) was calculated by modified Karber method on day 15. The experiment was repeated twice.

KM mice = assay: Acute oral toxicity study; details: mouse, in vivo, 5000 mg/kg
Experimental: as §4

## C=C[C@]1(C)C[C@@H](OC(=O)CSc2ccccc2N)[C@]2(C)[C@H](C)CC[C@]3(CCC(=O)[C@H]32)[C@@H](C)[C@@H]1O [Amphenmulin, 22-(2-amino-phenylsulfanyl)-22-deoxypleuromutilin]
E. coli ATCC 25922
  MIC: > 128 µg/mL
[1]
  MIC: > 128 µg/mL
E. faecalis ATCC 29212
  MIC: > 128 µg/mL
E. faecium ATCC 35667
  MIC: 0.125 µg/mL (≈ 0.257 µM)
S. aureus ATCC 29213
  MIC: 0.0156 µg/mL (≈ 0.0321 µM)
IL-6
  IL-6 in the serum vs infection group: significantly decreased
TNF-α
  TNF-α in the serum vs infection group: significantly decreased
MCP-1
  MCP-1 in the serum vs infection group: significantly decreased
MRSA ATCC 43300; 1× MIC, exposure for 1 h
  PAE: 0.71 h
MRSA ATCC 43300; 1× MIC, exposure for 2 h
  PAE: 1.35 h
MRSA ATCC 43300; 4× MIC, exposure for 1 h
  PAE: 1.78 h
MRSA ATCC 43300; 4× MIC, exposure for 2 h
  PAE: 2.83 h
MRSA
  MIC: 0.0156 to 8 µg/mL (≈ 0.0321 to 16.5 µM)
[2]
  LD50 at 14 days: > 5000 mg/kg
KM mice
  mortality: No mice died
KM mice; po
  abnormal symptoms: increase in the heart rate, excitement of some mice and inappetence
